# Reference: US20230270721A1, “INHIBITION OF BAX-MEDIATED CELL DEATH BY ELTROMBOPAG” (Albert Einstein College of Medicine, priority 2020, published 2023)
# Assays:
# [1] = molecular target: T1, BAX (Homo sapiens, UniProt Q07812); test: Competitive fluorescence polarization binding assay (FPA), BAX / FITC-BIM-SAHB; conditions: FITC-BIM-SAHB 25 nM
# T1 construct: Human full-length (1-192) wild-type BAX (Q07812); made in house; host or cells: E. coli BL21 (DE3) CodonPlus (DE3)-RIPL
# Experimental: Fluorescence polarization assays (FPA) were performed as previously described (Gavathiotis, E., et al. Nat Chem Biol 8, 639-645 (2012)). Direct binding isotherms of BIM-SAHB were measured by incubated FITC-BIM-SAHB (25 nM) with serial dilutions of full-length BAX alone or in the presence of 0.5 or 1 µM EO. Competition binding assays were performed by titrating ED into BAX (150 nM) and FITC-BIM-SAHB (25 nM). Measurements were taken at 10-minute intervals over 60 minutes on a TECAN F200 PRO microplate reader. Reported curves represent 10-minute time point. KD values and IC50 were determined using GraphPad Prism nonlinear fit four-parameter agonist or antagonist versus response with restraints for 100% and 0% bound calculated by the mP of saturated BAX + FITC-BIM-SAHB and FITC-BIM-SAHB alone.
# To test this hypothesis, a competitive fluorescence polarization assay (FPA) (Gavathiotis, E., et al. Nat Chem Biol 8, 639-645 (2012)) based on the interaction between BAX and fluorescently-labeled stapled BIM-BH3 peptide (FITC-BIM-SAHB) was used (Gavathiotis, E., et al. Nature 455, 1076-1081 (2008)). […] The IC50 and KD are consistent with a competitive binding mechanism of EO displacing FITC-BIM-SAHB from the N-terminal trigger site of BAX.
# [2] = molecular target: T1, BAX; test: BAX conformation change assay using anti-6A7 immunoprecipitation; format: biochemical; conditions: BAX 10 µM, 4 equivalents BIM-BH3, 5 or 10 equivalents EO
# Experimental: Exposure of the 6A7 epitope of BAX was assessed by immunoprecipitation with a 6A7-domain-specific antibody purchased from Santa Cruz (SC-23959). Protein G beads (50 µL, Santa Cruz) were washed three times with 3% BSA in PBS and incubated with 15 µL 6A7 antibody at 4° C. for 1 hr. Recombinant full-length BAX (10 µM) was incubated with 4 equivalents of BIM-BH3 peptide alone and in the presence of 5 or 10 equivalents of EO for 15 min at room temperature. Incubation of full-length recombinant BAX with 0.1% Triton X served as a positive control for exposure of the 6A7 epitope. After incubation, 10 µL of each reaction was transferred to the protein G beads pre-loaded with the anti-6A7 antibody, and 1 µL was reserved as a loading control. After 90 minutes of incubation at 4° C. beads were collected and washed three times with […] of 3% BSA in PBS and solubilized with 25 µL LDS/DTT loading buffer. Samples were resolved by SDS-PAGE electrophoresis and western blot analysis with an anti-BAX yth-2D2 antibody (Invitrogen).
# Prior to permeabilizing membranes, activated BAX must first translocate to the membrane (Lovell, J. F. et al. Cell 135, 1074-1084, (2008)). To explore this earlier step in BAX activation, an NBD-fluorescence-based translocation assay was used. […]
# [3] = test system: BAK KO (BAK-/-) MEFs; test: Cytochrome c release assay (ELISA), BAK KO MEFs; format: cell-based, mouse; design: dose or concentration left out as unconfirmed; conditions: BIM-BH3 peptide, EO pretreatment 2 hours
# Experimental: BAX^-/^- or BAK^-/^- mouse embryonic fibroblasts were maintained in DMEM (Life Technologies) supplemented with 10% FBS, 100 U/mL penicillin/streptomycin, 2 mM I-glutamine, and 0.1 mM MEM nonessential amino acids. MEFs (5×10^4 cells/well) were seeded in a 96 well clear u-bottom plate for 18-24 hr. Media was removed and replaced with media lacking FBS, and cells were treated with varying doses of EO for 2 hours at 37° C. […] Cytochrome c release was determined by decanting 50 µL of the supernatant and analyzing with the rat/mouse cytochrome c quantikine ELISA kit (R&D Systems, MCTO) according to the recommended protocol. […]
# It is important to note that THPO-receptor agonist activity of EO is highly specific to the human and chimpanzee THPO-receptors, making mouse cell lines ideal for studying EO modulation of BAX-dependent activity independent of THPO-mediated effects (Erickson-Miller, C. L. et al. Stem Cells 27, 424-430 (2009)). First, mitochondrial cytochrome c release, a hallmark of BAX activation and BAX-dependent apoptosis, was evaluated. […] Next, mitochondrial translocation of cytosolic BAX upon treatment with either BIM BH3 or staurosporine (STS) in BAK KO MEFs was evaluated.
# T1 sequence (Q07812 whole entry): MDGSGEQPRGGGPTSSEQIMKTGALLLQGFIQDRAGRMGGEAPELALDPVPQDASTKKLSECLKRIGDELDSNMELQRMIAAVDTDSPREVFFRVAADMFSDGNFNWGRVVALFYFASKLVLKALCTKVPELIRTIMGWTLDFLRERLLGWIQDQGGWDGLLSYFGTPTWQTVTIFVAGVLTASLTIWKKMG
smiles,measurement,setting,value
"CC1=NN(c2ccc(C)c(C)c2)C(=O)/C1=N\Nc1cccc(-c2cccc(C(=O)O)c2)c1O [EO, eltrombopag]",IC50,"[1]; BAX 150 nM, 10-minute time point, read-out: half-maximal inhibition IC50, competition of FITC-BIM-SAHB",207 nM
same,affinity of BAX for FITC-BIM-SAHB in the presence of EO,"[1]; direct binding titration of BAX, 0.5 or 1 µM EO",decreased affinity
same,BIM-BH3 induced 6A7 epitope exposure,[2],inhibited
same,BIM-BH3 induced release of cytochrome c,[3],significantly inhibited
